The assay can be described thus: PRMT5 Biochemical Assay: The assays were all performed in a buffer consisting of 20 mM Bicine (pH=7.6), 1 mM TCEP, 0.005% BSG, and 0.002% Tween20, prepared on the day of use. Compounds in 100% DMSO (1 ul) were spotted into a polypropylene 384-well V-bottom plates (Greiner) using a Platemate Plus outfitted with a 384-channel head (Thermo Scientific). DMSO (1 ul) was added to Columns 11, 12, 23, 24, rows A-H for the maximum signal control and 1 ul of SAH, a known product and inhibitor of PRMT5/MEP50, was added to columns 11, 12, 23, 24, rows I-P for the minimum signal control. A cocktail (40 ul) containing the PRMT5/MEP50 enzyme and the peptide was added by Multidrop Combi (Thermo-Fisher). The compounds were allowed to incubate with PRMT5/MEP50 for 30 min at 25 degrees Celsius, then a cocktail (10 ul) containing 3H-SAM was added to initiate the reaction (final volume=51 ul). The final concentrations of the components were as follows: PRMT5/MEP50 was 4 nM, 3H-SAM was 75 nM, peptide was 40 nM, SAH in the minimum signal control wells was 100 uM, and the DMSO concentration was 1%. The assays were stopped by the addition of non-radioactive SAM (10 ul) to a final concentration of 600 uM, which dilutes the 3H-SAM to a level where its incorporation into the peptide substrate is no longer detectable. […].

As to `C[C@H](Oc1cccc2cccnc12)C(=O)NC[C@@H](O)CN1Cc2ccccc2C1`, the concentration for half-maximal inhibition (IC50) result is “in the range around 550 nM”.

The values are drawn from ChEMBL document CHEMBL5725862, “PRMT5 inhibitors and uses thereof” (2018).
